According to patent US20130089912A1, “METHODS AND COMPOSITIONS FOR THE STABILIZATION OF BIOLOGIC MATERIAL” (priority 2011, published 2013):
“And” between values parts separate entries of the source, which are not always exact repeats. Identical values can stand only once. Counter-ions that a name gives are not always drawn. Like-named read-outs stand apart in the source and are kept apart here.

Tests used:
[1] = Differential scanning calorimetry of DPPC unilamellar vesicles mixed with test compound (screening assay for toxic membrane interactions)
[2] = choline salt of the named anion
[3] = test system: mouse macrophage cell line; conditions: cited from earlier work; for Log EC50: logarithm of EC50 in uM, matches the EC50 values of Weaver et al. (2010)
[4] = 10 mM compound, DPPC liposomes, HEPES buffer pH 7.40
[5] = 10 mM compound, DPPC liposomes, HEPES buffer pH 7.40, scan 20 to 50° C., equilibrium scans
[6] = 10 mM compound, compared to DPPC control scan from same LUV batch solution
[7] = choline salt 10 mM, DPPC vesicle assay, Table 2
[8] = cellular toxicity, values reproduced from Weaver et al. (2010)
[9] = 10 mM compound, DPPC liposomes, HEPES buffer pH 7.40, NR = not resolvable
[10] = 10 mM compound, initial heating scan

| Compound | Effect on DPPC main gel-liquid crystal phase transition (in words) ([1]; 10 mM compound) | Main Transition ΔH [1, 4] | Main Transition ΔT(1/2) [1, 4] | Main Transition Tm [1, 5] | Change in Main Transition ΔTm [1, 6] | Change in Main Transition ΔΔH [1, 6] | Change in Main Transition ΔΔT(1/2) [1, 6] | Change in Pretransition ΔH [1, 6] | Δ Tm [1, 7] | ΔΔ H [1, 7] | ΔΔ T(1/2) [1, 7] | EC50 [3, 8] | Pretransition ΔH [1, 9] | other results |
| --- | --- | --- | --- | --- | --- | --- | --- | --- | --- | --- | --- | --- | --- | --- |
| 2-hydroxyethyl(trimethyl)azanium bis(2,4,4-trimethylpentyl)phosphinate [CTMP] | large decrease in Tm and enthalpy, and increased cooperativity | 3.58 kcal/mol | 1.48 °C | 32.6 °C and 33 °C and 32.58 °C | −21% | −52% | −17% | −100% | −8.08 C | −2011 cal/mole/ C | −0.37 C | < 0.25 mM |  | Decrease of peak width (ΔΔT1/2) compared to control lipid vesicles ([1]; 10 mM compound): 17%; Reduction of main transition Tm compared to DPPC alone ([1]; 10 mM compound): 21%; Reduction of transition enthalpy (in words) ([1]; 10 mM compound, compared to control lipid vesicles): half; Pretransition peak of DPPC (in words) ([1]; 10 mM compound, peak normally at approximately 34° C.): below resolvable limits; Log Pow [2]: 3.60; Log EC50 [3]: 2.39 uM |
| 2-hydroxyethyl(trimethyl)azanium bis(2-ethylhexyl)phosphate [CBEH] |  | 0.077 kcal/mol | 2.95 °C | 42.49 °C | +2.5% | −99% | +16% | −82% |  |  |  | < 0.3 mM | 0.066 kcal/mol | Main transition temperature [1, 10]: ~41 °C; Pretransition temperature [1, 10]: ~33 °C; Reduction in main transition enthalpy compared to DPPC in HEPES alone [1, 10]: 99%; Reduction in pretransition enthalpy compared to DPPC in HEPES alone [1, 10]: 82%; Third prominent peak (subtransition) temperature [1, 10]: 27 °C; New peak Tm ([1]; DPPC-CBEH dispersions run starting at 10° C., first heating scan): 21 °C |
| 2-hydroxyethyl(trimethyl)azanium dibutyl phosphate [CDBP] | no statistically significant effect | 7.831 kcal/mol | 1.50 °C | 41.05 °C | −0.5% | +2% | −6% | −20% |  |  |  | 9 mM and 9.1 mM | 0.44 kcal/mol |  |
| C[N+](C)(C)CCO.[Cl-] [CCL, choline chloride, reference compound] |  |  |  |  |  |  |  |  |  |  |  |  |  | Change in Main Transition ΔTm [1]: +0.8%; Change in Main Transition ΔΔH [1]: +15%; Change in Main Transition ΔΔT(1/2) [1]: −3%; Change in Pretransition ΔH [1]: +51%; Main Transition Tm ([1]; pH 7.4): 41.70 °C; Main Transition ΔH ([1]; pH 7.4): 9.633 kcal/mol; Main Transition ΔT(1/2) ([1]; pH 7.4): 1.55 °C; Pretransition ΔH ([1]; pH 7.4): 0.378 kcal/mol; EC50 [3]: 34 mM |
| C[N+](C)(C)CCO.O=P([O-])(O)O [CDHP, 2-hydroxyethyl(trimethyl)azanium dihydrogen phosphate] | no statistically significant effect | 7.949 kcal/mol | 1.33 °C | 41.69 °C | +0.7% | +3% | −6% | −54% | +0.52 C | −76 cal/mole/ C | 0.131 C | 20 mM | 0.248 kcal/mol | Log Pow [2]: −3.15; Log EC50 [3]: 4.31 uM |
| CC(C)Cc1ccc(C(C)C(=O)[O-])cc1.[Na+] (stereo not drawn) [Ibuprofen sodium salt, ibuprofen sodium salt, reference compound] |  | 7.222 kcal/mol | 1.79 °C | 38.82 °C | −6% | −11% | +12% | −13% |  |  |  |  | 0.375 kcal/mol |  |
| CC(=O)CCC(=O)O [Levulinate] | a moderate decrease in Tm, and a large decrease in enthalpy |  |  |  |  |  |  |  | −0.21 C | −2155 cal/mole/ C | 0.39 C |  |  |  |
| [Cl-].[Na+] [NaCl, sodium chloride, reference compound] |  |  |  |  |  |  |  |  |  |  |  |  |  | Change in Main Transition ΔTm [1]: +0.8%; Change in Main Transition ΔΔH [1]: +17%; Change in Main Transition ΔΔT(1/2) [1]: −4%; Change in Pretransition ΔH [1]: +103%; Main Transition Tm ([1]; pH 7.4): 41.72 °C; Main Transition ΔH ([1]; pH 7.4): 9.823 kcal/mol; Main Transition ΔT(1/2) ([1]; pH 7.4): 1.53 °C; Pretransition ΔH ([1]; pH 7.4): 0.508 kcal/mol; EC50 [3]: 63 mM and 60 mM |
| CNCCC=C1c2ccccc2CCc2ccccc21 [Nortriptyline hydrochloride, nortriptyline hydrochloride, reference compound] | shifted to lower temperatures, with notable main peak broadening | 8.078 kcal/mol | 1.41 °C | 30.66 °C | −26% | +8% | +6% | −100% |  |  |  |  |  |  |
| choline formate |  |  |  |  |  |  |  |  |  | −733 cal/mole/ C | −0.02 C |  |  | Effect on DPPC main gel-liquid crystal phase transition (in words) [1]: a moderate increase in Tm and a moderate decrease in enthalpy; Δ Tm [1]: +0.31 C |
| choline lactate | a moderate increase in Tm and a moderate decrease in enthalpy |  |  |  |  |  |  |  | +0.37 C | −480 cal/mole/ C | −0.06 C |  |  | Log Pow [2]: −1.73 |
| choline tartarate |  |  |  |  |  |  |  |  |  | +121.9 cal/mole/ C | −0.03 C |  |  | Δ Tm [1]: +0.35 C |
